According to patent US20180177729A1, “G PROTEIN-COUPLED RECEPTORS INCORPORATED INTO REHYDRATED POLYMER VESICLES RETAIN FUNCTIONALITY” (UNIVERSITY OF SOUTHERN CALIFORNIA, priority 2016, published 2018):

Molecular target: T1, human serotonin 5-HT1A receptor (5-HT1AR) (Homo sapiens, UniProt P08908)
T1 construct: purchased Perkin Elmer
T1 sequence (P08908 1-422): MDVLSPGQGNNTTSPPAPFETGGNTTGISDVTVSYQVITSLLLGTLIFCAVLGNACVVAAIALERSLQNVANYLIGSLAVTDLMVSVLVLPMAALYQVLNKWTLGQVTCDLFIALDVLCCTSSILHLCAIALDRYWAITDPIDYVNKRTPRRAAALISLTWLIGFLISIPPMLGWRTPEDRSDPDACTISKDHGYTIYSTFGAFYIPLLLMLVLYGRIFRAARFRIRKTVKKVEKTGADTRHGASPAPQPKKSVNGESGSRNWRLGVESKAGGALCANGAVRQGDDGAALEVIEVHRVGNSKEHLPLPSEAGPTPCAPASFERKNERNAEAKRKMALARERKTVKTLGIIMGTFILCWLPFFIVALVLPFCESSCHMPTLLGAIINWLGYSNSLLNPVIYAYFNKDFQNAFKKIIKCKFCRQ
Assay: 5-HT1A activity assay via microplate reader (BODIPY-GTPγS unquenching) in pGUPs
Assay type: biochemical
Settings: for Rate (protein functional rate): agonist 8-OH-DPAT, 37° C., 12 hours
Procedure: Fluorescence unquenching of BODIPY-GTPγS due to G protein binding was monitored every 5 minutes. Tracked fluorescence over time was first calculated as percent intensity increase to account for variation in sample size. Curves represent six independent replicates of the same experimental protocol and each time point is an average of the intensity increase. Curves were then normalized for ease in viewing the differences in protein functional rate.
25 mm no. 1 coverslips were cleaned via sonication in MeOH for 30 minutes at 35° C. Coverslips were dried and were further plasma treated in a PDC-32G benchtop plasma cleaner (Harrick Plasma, USA) for 15 minutes. Coverslips were held in Sykes-Moore chambers for vesicle formation. Protein-incorporated polymeric giant unilamellar protein-vesicles (pGUPs) were formed using methods similar to those previously published for lipid vesicles. Briefly, a 1:1 v/v mixture of membrane fragment suspension and agarose (3% w/v) at 45° C. was drop casted onto coverslips for thin film formation. The hydrogel film was allowed to gel and a film of polymer solution (5 mg/ml in CHCl3) was subsequently made. Solvent was evaporated using a stream of N2 gas. […] Vesicles were harvested from the coverslip and diluted in 3× of an isoosmotic glucose solution (200 mM glucose in PBS, pH 7.4). (p)GUPs were allowed to sediment in glucose for 30 minutes at room temperature.
Prepared and settled pGUPs were transferred to a flat bottom 96-well plate. Agonist 8-OH-DPAT was added to each well to a final concentration of 150 nM immediately prior to reading fluorescence. Control pGUPs were run without the addition of the agonist. Rehydration buffer with and without agonist and protein were read as positive and negative controls. Samples were read at physiological temperature (37° C.) every 5 minutes for twelve hours to ensure complete activity assessment. Fluorescence reading of BODIPY-GTPγS unquenching was done on a Biotek Synergy H4 Microplate Reader equipped with a xenon flash lamp. Excitation was set to 485/20 nm and emission at 528/20 nm at a read height of 7 mm.
Fluorescence microtiter results were collect and analyzed using JMP. Six separate observations were fitted and averaged to obtain a single curve with standard error mean values. Rates were fitted to the JMP Mechanistic Growth curve using a single exponential. Statistical analysis using a Tukey-Kramer pairwise comparison of means were done using JMP with a 95% confidence interval (α=0.05).

SMILES	Rate (protein functional rate) (14 μM antagonist in pGUPs) [min⁻¹]	Effect on protein functional rate (antagonist in pGUPs)	Rate (protein functional rate) (14 pM antagonist in pGUPs) [min⁻¹]	Rate (protein functional rate) (14 nM antagonist in pGUPs) [min⁻¹]
COc1ccccc1N1CCN(CCCCN2C(=O)c3ccccc3C2=O)CC1 [NAN-190]	0.057	reduce the protein functional rate	–	–
O=C(CCCN1CCC2(CC1)C(=O)NCN2c1ccccc1)c1ccc(F)cc1 [Spiperone, spiperone]	0.077	–	0.102	0.096
